Reference: patent US5057520A, “7-(peptidylpyrolidinyl)naphthyridine antibacterial compounds” (Abbott Laboratories, priority 1989, dated 1991)
In brackets after ≈: the same amount, converted by molar mass. Counter-ions that a name gives are not always drawn. Like-named read-outs stand apart in the source and are kept apart here.

Experiments:
[1] = Conversion of prodrug to parent drug in whole blood at 37° C.; format: in vitro ADME, Dog
Method: (§1) An aqueous solution of prodrug (Z) is spiked into fresh whole blood containing sodium heparin as an anticoagulant. The sample is mixed gently by inversion and placed in a 37° waterbath. At selected time intervals an 0.5 ml aliquot of blood is removed and placed in a chilled 1.5 ml centrifuge tube (ice temperature). Samples are centrifuges at 13,000 rpm for two minutes to separate plasma. An 0.2 ml aliquot of the plasma sample is combined with 0.2 ml internal standard (7-(4-amino-2-methyl-1-pyrrolidinyl)-1-(2,4-difluorophenyl)-6-fluoro-1,4-d ihydro-4-oxo-1,8-naphthyridine-3-carboxylic acid in 0.2M sodium phosphate pH 7.2 buffer) and 6 mls CH2 Cl2 :EtoH (9:1 by volume). Samples are capped and shaken gently for 10 minutes. Samples are centrifuges at 2500 rpm for 10 minutes (4° C.). The aqueous layer is aspirated to waste and the organic layer is transferred to a conical centrifuge tube and evaporated to dryness with a stream of dry air and low heat ([…]). Samples are reconstituted with 0.2 ml mobile phase followed by vortexing. Samples are centrifuges at 2500 rpm for 10 minutes to separate precipitate. The supernatant is transferred to a WISP vial with plastic insert for HPLC analysis.

Stap. Aureus NCTC 10649 = experiment: Acute mouse protection test; format: in vivo; details: mice infected i.p. with Stap. Aureus NCTC 10649, observed 7 days; for SC (ED50): SC dosing at 1 and 5 hours post-infection; for Oral (ED50): oral dosing at 1 and 5 hours post-infection
[2] = tested on: ENTEROCOCCUS FAECIUM ATCC 8043; experiment: In vitro MIC, agar dilution (BHIA); format: cell-based
[3] = Conversion of prodrug to parent drug in whole blood at 37° C.; format: in vitro ADME, Rat
Method: as §1

[4] = tested on: STREPTOCOCCUS PYOGENES 930 CONST; experiment: In vitro MIC, agar dilution (BHIA); format: cell-based
[5] = tested on: PSEUDOMONAS AERUGINOSA K799/61; experiment: In vitro MIC, agar dilution (BHIA); format: cell-based
[6] = tested on: PSEUDOMONAS AERUGINOSA A5007; experiment: In vitro MIC, agar dilution (BHIA); format: cell-based
[7] = tested on: MICROCOCCUS LUTEUS ATCC 4698; experiment: In vitro MIC, agar dilution (BHIA); format: cell-based
[8] = tested on: KLEBSIELLA PNEUMONIAE ATCC 8045; experiment: In vitro MIC, agar dilution (BHIA); format: cell-based
[9] = tested on: STREPTOCOCCUS BOVIS A5169; experiment: In vitro MIC, agar dilution (BHIA); format: cell-based
[10] = tested on: STREPTOCOCCUS AGALACTIAE CMX 508; experiment: In vitro MIC, agar dilution (BHIA); format: cell-based
[11] = tested on: MICROCOCCUS LUTEUS ATCC 9341; experiment: In vitro MIC, agar dilution (BHIA); format: cell-based
[12] = tested on: PSEUDOMONAS AERUGINOSA K799/WT; experiment: In vitro MIC, agar dilution (BHIA); format: cell-based
[13] = tested on: STREPTOCOCCUS PYOGENES EES61; experiment: In vitro MIC, agar dilution (BHIA); format: cell-based
P. Aeruginosa A5007 = experiment: Acute mouse protection test; format: in vivo; details: mice infected i.p. with P. Aeruginosa A5007, observed 7 days; for SC (ED50): SC dosing at 1 and 5 hours post-infection; for Oral (ED50): oral dosing at 1 and 5 hours post-infection
[14] = tested on: PSEUDOMONAS AERUGINOSA BMH10; experiment: In vitro MIC, agar dilution (BHIA); format: cell-based
ACINETOBACTER SP CMX 669 = experiment: In vitro MIC, agar dilution (BHIA); format: cell-based
ESCHERICHIA COLI JUHL = experiment: In vitro MIC, agar dilution (BHIA); format: cell-based
[15] = tested on: STREPTOCOCCUS PYOGENES 2548 INDUC; experiment: In vitro MIC, agar dilution (BHIA); format: cell-based
ESCHERICHIA COLI DC-2 = experiment: In vitro MIC, agar dilution (BHIA); format: cell-based
Text: (§2) The MIC results are in ug/ml.

ESCHERICHIA COLI H560 = experiment: In vitro MIC, agar dilution (BHIA); format: cell-based
Text: as §2

ESCHERICHIA COLI SS = experiment: In vitro MIC, agar dilution (BHIA); format: cell-based
Text: as §2

[16] = tested on: PROVIDENCIA STUARTII CMX 640; experiment: In vitro MIC, agar dilution (BHIA); format: cell-based
[17] = tested on: ENTEROBACTER AEROGENES ATCC 13048; experiment: In vitro MIC, agar dilution (BHIA); format: cell-based
PSEUDOMONAS CEPACIA 296I = experiment: In vitro MIC, agar dilution (BHIA); format: cell-based
E. Coli Juhl = experiment: Acute mouse protection test; format: in vivo; details: mice infected i.p. with E. Coli JUHL, observed 7 days; for SC (ED50): SC dosing at 1 and 5 hours post-infection; for Oral (ED50): oral dosing at 1 and 5 hours post-infection
ESCHERICHIA COLI KNK 437 = experiment: In vitro MIC, agar dilution (BHIA); format: cell-based
[18] = Conversion of prodrug to parent drug in whole blood at 37° C.; format: in vitro ADME, Human
Method: as §1

[19] = Solubility in water and at pH 7.4; details: for Water Solubility: the sign > refers to an approximate value and the solubility may be within 10% higher
[20] = Plasma level in dog after oral dose; details: 10 mg equivalent/kg oral dose, HPLC
Text: The plasma samples were collected and determined by the HPLC analysis.

[21] = STREPTOCOCCUS AGALACTIAE CMX 508

SMILES | Half Life Dog [1] | SC (ED50) (Stap. Aureus NCTC 10649) | Oral (ED50) (Stap. Aureus NCTC 10649) | MIC [5] | MIC [6] | MIC [7] | MIC [8] | MIC [11] | MIC [12] | SC (ED50) (P. Aeruginosa A5007) | Oral (ED50) (P. Aeruginosa A5007) | MIC [14] | MIC (ACINETOBACTER SP CMX 669) | MIC [15] | MIC (ESCHERICHIA COLI H560) | MIC (ESCHERICHIA COLI SS) | MIC [16] | MIC (PSEUDOMONAS CEPACIA 296I) | SC (ED50) (E. Coli Juhl) | Oral (ED50) (E. Coli Juhl) | also measured
CC(N)C(=O)NC(C)C(=O)NC1CCN(c2nc3c(cc2F)c(=O)c(C(=O)O)cn3-c2ccc(F)cc2F)C1 (stereo not shown) [Example 15] | 2.4 m | 0.8 mg/kg/day | 1.3 mg/kg/day | 3.1 µg/mL (≈ 5.67 µM) | 100 µg/mL (≈ 183 µM) | 100 µg/mL (≈ 183 µM) | 12.5 µg/mL (≈ 22.9 µM) | > 100 µg/mL | 50 µg/mL (≈ 91.5 µM) | 3.1 mg/kg/day | 9.1 mg/kg/day | 100 µg/mL (≈ 183 µM) | 12.5 µg/mL (≈ 22.9 µM) | 12.5 µg/mL (≈ 22.9 µM) | 6.2 µg/mL (≈ 11.3 µM) | .39 µg/mL (≈ 0.714 µM) | 100 µg/mL (≈ 183 µM) | 50 µg/mL (≈ 91.5 µM) | 0.5 mg/kg/day | 2.0 mg/kg/day | Solubility pH 7.4: 1.07 mg/ml; MIC [2]: 50 µg/mL (≈ 91.5 µM); Half Life Rat [3]: 84.8 s; MIC [4]: 12.5 µg/mL (≈ 22.9 µM); MIC ([9]; STREPTOCOCCUS BOVIS A5169): 50 µg/mL (≈ 91.5 µM); MIC [10, 21]: 12.5 µg/mL (≈ 22.9 µM); MIC ([13]; STREPTOCOCCUS PYOGENES EES61): 12.5 µg/mL (≈ 22.9 µM); MIC (ESCHERICHIA COLI JUHL): 12.5 µg/mL (≈ 22.9 µM); MIC (ESCHERICHIA COLI DC-2): 100 µg/mL (≈ 183 µM); MIC [17]: 25 µg/mL (≈ 45.7 µM); MIC (ESCHERICHIA COLI KNK 437): 50 µg/mL (≈ 91.5 µM); Half Life Human [18]: 3.0 m
CCC[C@H](NC(=O)CN)C(=O)NC1CCN(c2nc3c(cc2F)c(=O)c(C(=O)O)cn3-c2ccc(F)cc2F)C1 (stereo partly shown) [Example 52] |  |  |  |  |  |  |  |  |  |  |  |  |  |  |  |  |  |  |  |  | Solubility pH 7.4 [19]: 0.08 mg/ml; Water Solubility [19]: 6.89 mg/mL; AUC (0-32h) [20]: 13.9
NCC(=O)N[C@@H](Cc1ccccc1)C(=O)NC1CCN(c2nc3c(cc2F)c(=O)c(C(=O)O)cn3-c2ccc(F)cc2F)C1 (stereo partly drawn) [Example 1b, 7-[(3-Gly-L-Phe-amino)-1-pyrrolidinyl]-1-(2,4-difluorophenyl)-6-fluoro-1,4-dihydro-4-oxo-1,8-naphthyridine-3-carb oxylic acid hydrochloride] |  | 0.5 mg/kg/day | 0.7 mg/kg/day | 12.5 µg/mL | 25 µg/mL | .78 µg/mL | 12.5 µg/mL | 6.25 µg/mL | 25 µg/mL | 8.0 mg/kg/day | 27.3 mg/kg/day | 25 µg/mL | 12.5 µg/mL | .78 µg/mL | 1.56 µg/mL | .2 µg/mL | 100 µg/mL | 50 µg/mL | 0.6 mg/kg/day | 1.8 mg/kg/day | MIC [4]: .78 µg/mL; MIC ([9]; STR[…] A5169): 1.56 µg/mL; MIC ([10]; STR[…] 508): 1.56 µg/mL; MIC ([13]; STR[…] EES61): 1.56 µg/mL
CCC[C@H](NC(=O)[C@H](C)N)C(=O)NC1CCN(c2nc3c(cc2F)c(=O)c(C(=O)O)cn3-c2ccc(F)cc2F)C1 (stereo partly shown) [Example 55b, 7-(3-Ala-Nval-amino-1-pyrrolidinyl)-6-fluoro-1-(2,4-difluorophenyl)-1,4-di hydro-4-oxo-1,8-naphthyridine-3-carboxylic acid] |  |  |  |  |  |  |  |  |  |  |  |  |  |  |  |  |  |  |  |  | Half Life Dog ([1]; conversion to parent drug in dog whole blood at 37° C., seconds): 118.0 s; Half Life Rat ([3]; conversion to parent drug in rat whole blood at 37° C., seconds): 33.2 s; Solubility pH 7.4 [19]: 1.03 mg/ml; Water Solubility [19]: 26 mg/mL; AUC (0-32h) [20]: 15.4; Half Life Human ([18]; conversion to parent drug in human whole blood at 37° C., seconds): 88.0 s
NC(Cc1ccccc1)C(=O)NC1CCN(c2nc3c(cc2F)c(=O)c(C(=O)O)cn3-c2ccc(F)cc2F)C1 (stereo not shown) [Example 5] | 8.3 m | 1.0 mg/kg/day | 3.6 mg/kg/day | 1.56 µg/mL (≈ 2.83 µM) | 50 µg/mL (≈ 90.7 µM) | 12.5 µg/mL (≈ 22.7 µM) | 1.56 µg/mL (≈ 2.83 µM) | 25 µg/mL (≈ 45.3 µM) | 25 µg/mL (≈ 45.3 µM) | 7.5 mg/kg/day | 18.6 mg/kg/day | 25 µg/mL (≈ 45.3 µM) | 12.5 µg/mL (≈ 22.7 µM) | .78 µg/mL (≈ 1.41 µM) | 3.1 µg/mL (≈ 5.62 µM) | .1 µg/mL (≈ 0.181 µM) | > 100 µg/mL | > 100 µg/mL | 0.7 mg/kg/day | 3.5 mg/kg/day | MIC [2]: 3.1 µg/mL (≈ 5.62 µM); Half Life Rat [3]: 4.5 m; MIC [10, 21]: 3.1 µg/mL (≈ 5.62 µM); MIC ([13]; STREPTOCOCCUS PYOGENES EES61): 3.1 µg/mL (≈ 5.62 µM); MIC (ESCHERICHIA COLI JUHL): 3.1 µg/mL (≈ 5.62 µM); MIC [17]: 12.5 µg/mL (≈ 22.7 µM); Half Life Human [18]: 10.7 m
